In brackets after ≈: the same amount, converted by molar mass. Several values for one entry are separate records, joined by “and”; a condition that tells them apart may be missing. Equal entries are not always repeated. Where two headings read alike, the source gives them in different places. Marks after values point to notes of the source that are not given here.
How the values were obtained:
[1] = target: T1, neuraminidase NanA of S. pneumoniae strain DSM20566 (Streptococcus pneumoniae, UniProt P62575); assay: Lectin-based hemagglutination NA inhibition assay with pneumococcal neuraminidase; type: biochemical; details: ethanol-precipitated proteins of S. pneumoniae DSM20566, lectin-based hemagglutination assay
T1 sequence (P62575 54-1035): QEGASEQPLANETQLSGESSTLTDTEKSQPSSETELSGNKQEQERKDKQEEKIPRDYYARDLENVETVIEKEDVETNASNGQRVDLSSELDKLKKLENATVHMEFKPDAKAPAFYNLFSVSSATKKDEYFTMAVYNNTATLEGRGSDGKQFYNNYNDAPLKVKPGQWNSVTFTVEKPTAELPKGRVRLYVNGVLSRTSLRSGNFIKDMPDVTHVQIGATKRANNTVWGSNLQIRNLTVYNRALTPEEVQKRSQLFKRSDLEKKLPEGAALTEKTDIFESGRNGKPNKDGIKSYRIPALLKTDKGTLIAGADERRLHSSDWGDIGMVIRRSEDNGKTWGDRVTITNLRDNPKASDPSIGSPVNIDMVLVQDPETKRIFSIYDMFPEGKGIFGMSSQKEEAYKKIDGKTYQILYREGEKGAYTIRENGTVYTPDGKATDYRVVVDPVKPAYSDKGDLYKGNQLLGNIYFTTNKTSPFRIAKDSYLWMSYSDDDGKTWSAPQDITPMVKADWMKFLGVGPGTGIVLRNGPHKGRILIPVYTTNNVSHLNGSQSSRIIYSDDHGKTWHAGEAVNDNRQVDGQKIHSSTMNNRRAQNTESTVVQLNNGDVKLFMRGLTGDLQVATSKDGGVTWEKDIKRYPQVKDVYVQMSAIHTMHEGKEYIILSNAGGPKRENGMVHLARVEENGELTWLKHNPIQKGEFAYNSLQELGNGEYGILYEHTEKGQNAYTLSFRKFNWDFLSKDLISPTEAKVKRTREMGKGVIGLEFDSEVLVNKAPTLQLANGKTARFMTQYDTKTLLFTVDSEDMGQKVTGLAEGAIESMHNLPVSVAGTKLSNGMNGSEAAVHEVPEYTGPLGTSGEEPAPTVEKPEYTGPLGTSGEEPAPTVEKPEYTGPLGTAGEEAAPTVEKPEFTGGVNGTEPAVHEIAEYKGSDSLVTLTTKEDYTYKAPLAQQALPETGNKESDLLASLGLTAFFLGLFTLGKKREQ

[2] = system: neuraminidase of influenza A virus (IAV NA); assay: Human erythrocyte-based (hemagglutination-based) viral neuraminidase inhibition assay; type: biochemical, influenza A virus A/Jena/8178/09; details: human erythrocytes, 37 °C for 24 h, maximum 100 µM for test compounds
[3] = system: influenza A virus A/Jena/8178/09 (subtype A(H1N1)pdm09); assay: Influenza A virus-induced CPE inhibition assay in MDCK cells (A/Jena/8178/09); type: cell-based; details: A(H1N1)pdm09, 48 h, maximum 100 µM, n.a. = not active, read-out: IC50 (IAV) Jena/8178
[4] = in vitro; details: dog
[5] = system: S. pneumoniae DSM20566; assay: Biofilm formation inhibition assay (crystal violet); type: cell-based, Streptococcus pneumoniae; details: Streptococcus pneumoniae; S. pneumoniae DSM20566, 24 h, crystal violet, maximum 50 μM; read-out: IC50 Biofilm formation
[6] = system: S. pneumoniae DSM20566; assay: Planktonic growth inhibition, microtiter broth microdilution assay; type: cell-based, Streptococcus pneumoniae; details: Streptococcus pneumoniae, read-out: IC50 Planktonic growth
[7] = system: influenza A virus A/HK/1/68 (subtype H3N2); assay: Influenza A virus-induced CPE inhibition assay in MDCK cells (A/HK/1/68); type: cell-based; details: H3N2, 48 h, maximum 100 µM, n.a. = not active, read-out: IC50 (IAV) HK/1/68
[8] = target: viral hemagglutinin (Influenza A virus, UniProt C3W5S1); assay: Human erythrocyte-based assay, inhibition of viral hemagglutinin-induced hemagglutination at 4 °C; type: biochemical; details: human erythrocytes, influenza A virus A/Jena/8178/09
Chain of viral hemagglutinin (C3W5S1 18-344 limits assumed): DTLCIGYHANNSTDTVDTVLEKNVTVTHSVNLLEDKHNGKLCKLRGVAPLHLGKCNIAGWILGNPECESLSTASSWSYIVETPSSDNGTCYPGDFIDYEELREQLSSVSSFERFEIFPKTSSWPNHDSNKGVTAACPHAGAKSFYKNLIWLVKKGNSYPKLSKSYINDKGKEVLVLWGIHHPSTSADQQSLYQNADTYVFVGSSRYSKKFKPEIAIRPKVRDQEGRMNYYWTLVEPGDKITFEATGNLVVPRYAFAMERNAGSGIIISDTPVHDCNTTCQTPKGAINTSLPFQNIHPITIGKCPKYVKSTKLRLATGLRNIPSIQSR
Chain of viral hemagglutinin (C3W5S1 345-566 limits assumed): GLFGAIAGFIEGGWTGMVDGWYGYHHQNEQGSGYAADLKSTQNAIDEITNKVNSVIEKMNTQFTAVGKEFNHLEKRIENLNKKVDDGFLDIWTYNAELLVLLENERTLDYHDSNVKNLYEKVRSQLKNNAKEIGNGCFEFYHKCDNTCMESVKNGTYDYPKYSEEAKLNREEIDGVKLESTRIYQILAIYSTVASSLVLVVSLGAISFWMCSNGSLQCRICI

[9] = target: T1, neuraminidase NanA of S. pneumoniae strain DSM20566; details: Published; cited from earlier work

In the case of `CCOC(=O)c1c(CN(CC)CC)n(C)c2c1cc(OC(C)=O)c1c2c(-c2ccccc2)nn1-c1ccccc1` [Compound 9b], the “MIC S.p. NanA (minimum neuraminidase inhibitory concentration)” value [1] is reported as 24.40 µM (≈ 13.1 µg/mL), the “MIC IAV NA (minimum neuraminidase inhibitory concentration)” value [2] is reported as 77.20 µM (≈ 41.6 µg/mL) and the IC50 ([3]; Influenza A virus) is reported as 53.2 µM. It also gave a CC50 at 72 h [4] greater than 100 µM.
In the case of `CCOC(=O)c1c(CN2CCCCC2)n(C)c2c1cc(O)c1c2c(-c2ccccc2)nn1-c1ccccc1` [Compound 10a], the IC50 [5] is reported as 3.31 µM, the melting point is reported as 285 °C and the “MIC S.p. NanA (minimum neuraminidase inhibitory concentration)” value [1] is reported as 31.60 µM (≈ 16.1 µg/mL). The “MIC IAV NA (minimum neuraminidase inhibitory concentration)” value [2] was 54.40 µM (≈ 27.7 µg/mL), the IC50 ([6]; S. pneumoniae DSM20566, 18 h, OD 620 nm, maximum 50 μM) was 6.88 µM and the IC50 ([3]; Influenza A virus) was 86.7 µM. The CC50 at 72 h [4] was greater than 100 µM.
In the case of `CCOC(=O)c1c(CN2CCOCC2)n(Cc2ccccc2)c2c1cc(O)c1c2c(-c2ccccc2)nn1-c1ccccc1` [Compound 10b], the melting point is reported as 145 to 146 °C, the “MIC S.p. NanA (minimum neuraminidase inhibitory concentration)” value [1] is reported as 10.0 µM and 10.00 µM and the “MIC IAV NA (minimum neuraminidase inhibitory concentration)” value [2] is reported as 54.40 µM (≈ 31.9 µg/mL). For the same compound, the IC50 ([6]; DSM20566, 18 h) was 7.57 µM, the IC50 ([3]; Influenza A virus) was 33.2 µM and the CC50 [4] was greater than 100 µM.
For `CCOC(=O)c1c(C)n(C)c2c1cc(OC)c1c2c(-c2ccc([N+](=O)[O-])cc2)nn1-c1ccccc1` [Compound 11a], the “MIC S.p. NanA (minimum neuraminidase inhibitory concentration)” value [1] was 31.60 µM (≈ 15.3 µg/mL), the “MIC IAV NA (minimum neuraminidase inhibitory concentration)” value [2] was 24.40 µM (≈ 11.8 µg/mL) and the IC50 ([3]; Influenza A virus) was 21.5 µM. It also gave a CC50 at 72 h [4] greater than 100 µM.
For `CCOC(=O)c1c(C)n(CC)c2c1cc(OCC)c1c2c(-c2ccc([N+](=O)[O-])cc2)nn1-c1ccccc1` [Compound 11b], the melting point was 175 to 177 °C, the “MIC S.p. NanA (minimum neuraminidase inhibitory concentration)” value [1] was 54.40 µM (≈ 27.9 µg/mL) and the “MIC IAV NA (minimum neuraminidase inhibitory concentration)” value [2] was 77.20 µM (≈ 39.6 µg/mL). The IC50 ([3]; Influenza A virus) was 25.5 µM and the CC50 [4] was greater than 100 µM.
For `CCOC(=O)c1c(C)[nH]c2c1cc(OCC)c1c2c(-c2ccc([N+](=O)[O-])cc2)nn1-c1ccccc1` [Compound 11c], the “MIC S.p. NanA (minimum neuraminidase inhibitory concentration)” value [1] was 54.40 µM (≈ 26.4 µg/mL), the “MIC IAV NA (minimum neuraminidase inhibitory concentration)” value [2] was 47.20 µM (≈ 22.9 µg/mL) and the IC50 ([3]; Influenza A virus) was 30.3 µM. For the same compound, the CC50 at 72 h [4] was greater than 100 µM.
Compound `CCCCCOc1cc2c(C(=O)OCC)c(C)[nH]c2c2c(-c3ccc([N+](=O)[O-])cc3)nn(-c3ccccc3)c12` [Compound 11d] has an IC50 ([3]; Influenza A virus) of 26.5 µM and a CC50 at 72 h [4] greater than 100 µM.
For `CCOC(=O)c1c(C)[nH]c2c1cc(OC(C)=O)c1c2c(-c2ccc([N+](=O)[O-])cc2)nn1-c1ccccc1` [Compound 11e], the “MIC S.p. NanA (minimum neuraminidase inhibitory concentration)” value [1] was 10.0 µM and 10.00 µM, the “MIC IAV NA (minimum neuraminidase inhibitory concentration)” value [2] was 17.20 µM (≈ 8.57 µg/mL) and the IC50 ([3]; Influenza A virus) was 16.7 µM. For the same compound, the CC50 at 72 h [4] was greater than 100 µM.
For `CCOC(=O)c1c(C)[nH]c2c1cc(O)c1c2c(-c2ccc(N)cc2)nn1-c1ccccc1` [Compound 12], the IC50 ([7]; Influenza A virus) was 8.54 µM, the “MIC S.p. NanA (minimum neuraminidase inhibitory concentration)” value [1] was 10.0 µM and 10.00 µM and the “MIC IAV NA (minimum neuraminidase inhibitory concentration)” value [2] was 21.40 µM (≈ 9.13 µg/mL). The IC50 ([3]; Influenza A virus) was 15.7 µM and the CC50 at 72 h [4] was greater than 100 µM.
For `CCOC(=O)c1c(C)[nH]c2c1cc(OC(C)=O)c1c2c(-c2ccc(N)cc2)nn1-c1ccccc1` [Compound 13], the IC50 ([7]; Influenza A virus) was 9.39 µM, the “MIC IAV NA (minimum neuraminidase inhibitory concentration)” value [2] was 14.20 µM (≈ 6.65 µg/mL) and the “Inhibition of hemagglutination (concentration)” value [8] was 31.6 µM. For the same compound, the IC50 ([3]; Influenza A virus) was 14.1 µM and the CC50 at 72 h [4] was greater than 100 µM.
With `CCOC(=O)c1c(C)[nH]c2c1cc(O)c1c2c(-c2ccc(-n3cccc3)cc2)nn1-c1ccccc1` [Compound 14] the IC50 [5] was 28 µM, the “MIC S.p. NanA (minimum neuraminidase inhibitory concentration)” value [1] was 10.0 µM and 10.00 µM and the “MIC IAV NA (minimum neuraminidase inhibitory concentration)” value [2] was 24.40 µM (≈ 11.6 µg/mL). For the same compound, the IC50 ([3]; Influenza A virus) was 11.4 µM and the CC50 at 72 h [4] was greater than 100 µM.
For `CCOC(=O)C1=C[C@@H](OC(CC)CC)[C@H](NC(C)=O)[C@@H](N)C1` [Oseltamivir, oseltamivir, reference compound], the “MIC S.p. NanA (minimum neuraminidase inhibitory concentration)” value [9] is given as 2.08 ^a μM, the IC50 [7] is given as 0.004 µM and the “MIC IAV NA (minimum neuraminidase inhibitory concentration)” value [2] is given as 1.97 µM (≈ 0.615 µg/mL). For the same compound, the IC50 [3] was 0.14 µM.
With `CC(=O)N[C@H]1[C@H]([C@H](O)[C@H](O)CO)OC(C(=O)O)=C[C@@H]1N=C(N)N` [Zanamivir, zanamivir, reference compound] the “MIC IAV NA (minimum neuraminidase inhibitory concentration)” value [2] was 3.16 µM (≈ 1.05 µg/mL) and the IC50 ([3]; Influenza A virus) was 0.11 µM.

Source: paper PMC10282731, “Pyrrolo[2,3-e]indazole as a novel chemotype for both influenza A virus and pneumococcal neuraminidase inhibitors” (RSC Advances, 2023)
